Measurements taken from patent US12130283B2, “Methods, systems and compositions for functional in vitro cellular models of mammalian systems” (University of Central Florida Research Foundation, Inc., priority 2012, dated 2024).

Key:
[1] = test system: patterned neonatal cardiomyocytes; experiment: Field potential recordings from patterned neonatal cardiomyocytes on microelectrode arrays; format: cell-based, rat
Excerpt: However, commercial MEAs have electrodes spaced too close to allow effective measurement of conduction velocity, so the long linear surface chemistry patterns developed in [Natarajan 2011] allowed for measurement of conduction velocity in the spontaneously beating patterned cardiomyocytes effectively.
The μCCA in FIG. 4 required the use of liver cells and cardiac myocytes. In FIG. 4GB, pump is 43, other tissues compartment is 44, and bubble is 45. The neonatal cardiac myocyte cultures are obtained from two-day-old rat pups by previously published methods [Dhir 2009; Natajaran 2011]. Cardiac myocytes were plated at a density of […] on the patterned MEAs. Approximately 10 days were required for the cultures to establish themselves. Cardiac myocytes were stable on the patterns for at least 30 days. A silicon rubber gasket was used to isolate the tissue chambers on the μCCA prior to assembly to allow optimization of culture conditions in each chamber. After 10 days, cells were introduced to the liver compartment. […]
The cardiac myocytes were cultured on patterned metal MEAs (Planar 10 μm electrodes, 200 μm separation. Multichannel-systems). […] After a 30 minute incubation period, APs were detected and recorded using built in functions of the Multichannel System software. […] The data was further analyzed using software written using Matlab and Clampfit (Axon instruments).

colon cancer = settings: cited from earlier work
[2] = in vivo; cited from earlier work
cultured cardiomyocytes = experiment: Spontaneous firing rate of cultured cardiomyocytes on patterned MEA (FIG. 14F); format: cell-based, human
Excerpt: The disclosed systems are based on human cardiac myocytes. As described herein, the incorporation of a functional cardiac system based on patterned cardiac cells integrated with microelectrode assays enabled the measurement of several cardiac parameters including conduction velocity, peak amplitude and spontaneous frequency, QT interval, and relative refractory period (which is related to triangulation). […] As shown in FIGS. 14A-F, cardiac function can be mimicked or simulated using a component comprising a microcantilever detection system (14A) or a patterned MEA (microelectrode array), FIG. 14D. […] Spontaneous or electrical stimulation-evoked force generation of cardiac myocytes was measured based on optical or electrical detection of cantilever-bending. […] The sensor detected the displacement of the laser beam caused by changes in the position of the cantilever. […] Peak contraction force and force-contraction velocity relationships were calculated based on the geometry of the cantilevers and the thickness of cultured cardiac myocytes (determined from immunostaining data). Compounds (such as norepinephrine, verapamil, and sotalol) were applied using traditional methods to the medium and possible changes in force or force-velocity relationship were detected and analyzed using standard statistical methods. […]

SMILES: CCCCCCCO [1-Heptanol]
- conduction velocity (CV) after Heptanol exposure ([1]; between electrodes 84 and 52, CV before addition of the drug 0.22 m/sec): 0.011 m/sec

SMILES: O=c1[nH]c(=O)n(C2CCCO2)cc1F (stereo not drawn) [Tegafur]
- optimal uracil to Tegafur ratio (colon cancer; maximizing the concentration of 5-FU in the tumor relative to that in the blood): 4 to 1

SMILES: CC1(C)C(C=C(Cl)Cl)C1C(=O)OCc1cccc(Oc2ccccc2)c1 (stereo not drawn) [cis-permethrin]
- toxicity of cis isomers relative to trans isomers [2]: about ten times more toxic

SMILES: NC[C@H](O)c1ccc(O)c(O)c1 [norepinephrine]
- effect on spontaneous firing rates (cultured cardiomyocytes): elicits alteration of spontaneous firing rates

SMILES: C[C@@H]1CN(c2c(F)c(N)c3c(=O)c(C(=O)O)cn(C4CC4)c3c2F)C[C@H](C)N1 [sparfloxacin]
- responsiveness of the patterned cardiac system [1]: responsive

SMILES: O=c1cc[nH]c(=O)[nH]1 [uracil]
- effect on the toxicity of Tegafur (colon cancer): enhances the toxicity of Tegafur
